Where no end group is shown, it is not given here. [ ]: non-standard residue; d: D form. Gln(vinylogous ester) = glutamine whose side-chain carboxamide is replaced by a vinylogous ester electrophilic trap (CO2Et)

The text below walks through data of patent publication US20050244823A1, “Novel epitopes for celiac disease and autoimmune diseases, methods for detecting those and novel non-antigenic food compounds” (Academisch Ziekenhuis Leiden, priority 2002, published 2005).

Test [1] concerns the target T1, tissue transglutaminase (tTG) (Cavia cutleri, UniProt P08587).
T1 construct: purchased Sigma, Zwijndrecht, NL T-5398
T1 sequence (P08587 2-690 limits assumed): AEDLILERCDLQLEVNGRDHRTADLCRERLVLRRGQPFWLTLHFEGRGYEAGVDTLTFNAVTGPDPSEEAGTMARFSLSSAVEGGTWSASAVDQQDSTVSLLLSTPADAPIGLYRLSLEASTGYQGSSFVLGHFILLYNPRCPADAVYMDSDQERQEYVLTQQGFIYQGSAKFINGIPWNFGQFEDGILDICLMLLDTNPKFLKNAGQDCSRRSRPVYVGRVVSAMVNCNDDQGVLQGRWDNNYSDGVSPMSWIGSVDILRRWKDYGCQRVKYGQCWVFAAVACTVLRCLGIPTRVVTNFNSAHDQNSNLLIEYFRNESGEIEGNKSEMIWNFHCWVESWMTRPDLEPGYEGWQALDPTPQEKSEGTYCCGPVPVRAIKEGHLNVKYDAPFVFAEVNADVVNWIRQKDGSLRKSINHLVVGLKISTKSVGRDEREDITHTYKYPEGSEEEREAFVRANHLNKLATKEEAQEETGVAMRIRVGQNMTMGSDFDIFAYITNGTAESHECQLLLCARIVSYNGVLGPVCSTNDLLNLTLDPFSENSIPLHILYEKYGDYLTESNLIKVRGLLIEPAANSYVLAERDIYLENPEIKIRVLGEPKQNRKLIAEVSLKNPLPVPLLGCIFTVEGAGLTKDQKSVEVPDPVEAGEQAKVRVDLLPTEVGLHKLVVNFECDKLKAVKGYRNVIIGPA
The test can be described thus: tTG treatment of synthetic gluten peptides, deamidation determined by mass spectrometry. Format: biochemical. Conditions: for deamidation of glutamine residues by tTG: peptide 500 μg/ml, tTG 100 μg/ml, 37° C., 4 h minimum, pH 6.5. The procedure: (§1) Peptides and tTG treatment. Peptides were synthesised by standard Fmoc chemistry on a multiple peptide synthesizer (SyroII, MultiSynTech GmbH, Witten, Germany). Integrity of synthetic peptides was checked by rpHPLC and mass spectrometry. Tissue transglutaminase (tTG) treatment was performed by incubating the peptides (500 μg/ml) with the enzyme (100 μg/ml, Sigma, Zwijndrecht, NL; T-5398) at 37° C. for 4 h minimum, in 50 mM triethylamine-acetate pH 6.5, 2 mM CaCl2.
(§2) Mass spectrometry. Electrospray ionisation mass spectrometry was performed on the synthetic gluten peptides before and after tTG treatment, using a Q-TOF hybrid mass spectrometer (Micromass, Manchester, UK). Precursor ions were selected with the quadrupole window set to 3 Da and fragments were collected with high efficiency with the orthogonal time of flight mass spectrometer. The collision gas applied was argon (pressure 4×10^−5 mbar) and the collision voltage approximately 30 V. Deamidation of glutamine residues in synthetic gluten peptides was determined by mass spectrometric analysis as described previously (van de Wal, 1998a). Deamidation of a glutamine residue results in an increase of 1 Da. These conversions were assigned to particular glutamine residues by comparison of the fragmentation spectra of tTG treated and non-treated peptides.

The subject of test [2] is gluten specific T cell lines. In words: T cell proliferation assay with gluten specific T cell lines. Format: cell-based, human. Particulars: T cell line from small intestinal biopsy of celiac disease patient; antigen 1-10 μg/ml; positive = Stimulation Index>3. The procedure: T cell clones T cell lines. Gluten specific T cell lines were generated from small intestinal biopsies of celiac disease patients as described before (van de Wal, 1998a).
T cell proliferation assays. Proliferation assays were performed in duplicate in 150 μl RPMI1640 (Gibco, Breda, NL) supplemented with 10% human serum in 96-well flat-bottomed plates (Falcon) using 10^4 T cells stimulated with 10^5 irradiated PBMCs (3000 RAD) in the presence or absence of antigen (1-10 μg/ml). After 48 hours at 37° C., cultures were pulsed with 0.5 μCi of ^3H-thymidine and harvested 18 hours thereafter as described previously (van de Wal, 1998b).

In test [3] the target is T1, tissue transglutaminase (tTG). Conditions: earlier publications (van de Wal 1998a; Arentz-Hansen 2000); cited from earlier work.
The subject of test [4] is gluten specific T cell lines. Particulars: Arentz-Hansen 2000; Anderson 2000; cited from earlier work.
For test [5], the target named is T1, tissue transglutaminase (tTG). In words: Inhibition of tTG induced deamidation of a substrate gluten peptide, mass spectrometric analysis. It is filed as biochemical. The procedure: as §1, §2
Where [6] appears, read: tTG-treated synthetic gluten peptide, mass spectrometry.

For “9: gluten peptide FPQHCNYQ[Q]QPQTFPQPF; [Q] = image character, presumably deamidated Q [Peptide 9]”, in test [1] (setting [6]), the “Rules QP ↓ (share of Q residues following the rule: Q preceding P not deamidated)” value was 100%, the “Rules QXP ↑ (share of Q residues following the rule: P at Q+2 allows deamidation)” value worked out at 100% and the “Rules QXXP ↓ (share of Q residues following the rule: P at Q+3 inhibits deamidation)” value is reported as 100%. As to LQQPQQ6PQFQPQQQF [Peptide 20], in test [1] (setting [6]), the “Rules QP ↓ (share of Q residues following the rule: Q preceding P not deamidated)” value turned out to be 100%, the “Rules QXP ↑ (share of Q residues following the rule: P at Q+2 allows deamidation)” value was 50%, the “Rules QXXF ↑ (share of Q residues following the rule: bulky/hydrophobic residue at Q+3 allows deamidation)” value is reported as 50%^ and the “Rules QXXP ↓ (share of Q residues following the rule: P at Q+3 inhibits deamidation)” value is listed as 100%. Consider PFPQLQQPQQPFPQ [gluten-derived peptide], for which the “stimulation of gluten specific T cell lines (proliferation)” value (from here on “stimulation”) in test [2] is listed as “stimulate gluten specific T cell lines”. As to PFPQPQQPQQPFPQ [gluten-derived peptide], the “stimulation” value in test [2] is recorded as “stimulate gluten specific T cell lines”. Still for that read-out and setting: the value for PFPQSQQPQQPFPQ [gluten-derived peptide] was “stimulate gluten specific T cell lines”; that for PFPQTQQPQQPFPQ [gluten-derived peptide] was “stimulate gluten specific T cell lines”.

On to PFSQQQQLVL, for which, in test [1], the “deamidation of glutamine residues by tTG” value is recorded as “all Q-residues are deamidated”. On the same count and under the same terms, the value for PFSQQQQPV was “specifically and efficiently deamidated”; that for PSGQ208GSFQPSQQ216N was “only the Q208 is deamidated”. PSGQ208GSFQPSQQ216NPQA: the “deamidation of glutamine residues by tTG / tTG substrate” value in test [3] was “Q208 and Q216 are deamidated by tTG, whereas positions Q212, Q215, and Q219 are not”. Turning to QFPQTQQPQQPFPQ [gluten-derived peptide], the “stimulation” value in test [2] is “stimulate gluten specific T cell lines”.

QLPFPQQPQQPFPQ [gluten-derived peptide]: in test [2], the “stimulation” value is recorded as “stimulate gluten specific T cell lines”. On to QLQPFPQPQLPY, for which the “T cell stimulatory activity in celiac disease patients” value in test [4] was “immunodominant”. For QPQLPYPQ, the “deamidation of glutamine residues by tTG / tTG substrate” value in test [3] is “known to be a tTG substrate”. Turning to QQPFPQQPQQPFPQ [gluten-derived peptide], the “stimulation” value in test [2] is “stimulate gluten specific T cell lines”. Same read-out and setting: the value for QQPYPQQPQQPFPQ [gluten-derived peptide] was “stimulate gluten specific T cell lines”. On to “first-generation inhibitor: biotinylated QPQLPYQ in which the carboxamide of glutamine at position 3 is replaced by a vinylogous ester electrophilic trap (CO2Et, FIG. 3) (QP[Gln(vinylogous ester)]LPYQ; also: biotinylated)”, for which the enzyme activity result in test [5] (0.3 molar ratio of enzyme to inhibitor) is reported as “completely abolished”. Also, the “inhibition of deamidation of a substrate peptide” value in test [5] (inhibitor mixed with the enzyme in an equimolar ratio) was “over 50%”.
